IC50 data for 38 compounds are collected here from patent US20250034110A1, “LPAR1 ANTAGONISTS AND USES THEREOF” (Pipeline Therapeutics, Inc., priority 2021, published 2025).

One may read the IC50 as the concentration at which inhibition is half-maximal.

Where two headings read alike, the source gives them in different places.

In the assay the target is human LPAR1 (Homo sapiens, UniProt Q92633). Put plainly: In vitro functional assay of lysophosphatidic acid receptor 1 activity (calcium flux). The format is cell-based. (In general: Calcium flux is commonly read through the fluorescence of an indicator in the cells.)
human LPAR1, sequence (Q92633 whole entry): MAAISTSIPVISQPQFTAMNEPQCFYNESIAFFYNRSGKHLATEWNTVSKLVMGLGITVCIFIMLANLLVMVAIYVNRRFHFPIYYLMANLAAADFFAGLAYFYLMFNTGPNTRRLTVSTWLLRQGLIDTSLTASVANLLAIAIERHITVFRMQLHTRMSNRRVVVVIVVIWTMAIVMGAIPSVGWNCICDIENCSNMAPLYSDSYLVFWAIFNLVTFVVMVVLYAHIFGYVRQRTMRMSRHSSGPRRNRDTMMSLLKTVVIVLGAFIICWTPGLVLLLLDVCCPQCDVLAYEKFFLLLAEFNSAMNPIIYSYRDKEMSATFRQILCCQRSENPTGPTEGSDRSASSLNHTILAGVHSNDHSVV
The mark [1] stands for this setting: B103 cells stably expressing human LPAR1, calcium flux (Fluo-4 NW) after lysophosphatidic acid (18:1) at EC80, 100 pM to 10 μM, read-out: LPAR1 IC50.

As to `Cc1ccc(NC(=O)N(C[C@H]2CC[C@H](C(=O)O)CC2)c2ccccc2C(C)C)c(OC(F)F)n1` [Example 171], the IC50 under setting [1] fell in the range of 10 to 100 nM. The same measure, in the same setting: the value for `COc1ccc(NC(=O)N(c2ccccc2C(C)C)[C@@H]2C[C@@H]3CC[C@H]2N3C(C)=O)c(OC(F)F)n1` (racemic) [Example 59, rac-1-((1R,2R,4S)-7-acetyl-7-azabicyclo[2.2.1]heptan-2-yl)-3-(2-(difluoromethoxy)-6-methoxypyridin-3-yl)-1-(2-isopropylphenyl)urea] was 100 to 1000 nM; that for `COc1ccc(NC(=O)N(c2ccccc2C(C)C)[C@H]2CC[C@H](C(=O)NS(C)(=O)=O)CC2)c(OC(F)F)n1` [Example 279, (1r,4r)-4-(3-(2-(difluoromethoxy)-6-methoxypyridin-3-yl)-1-(2-isopropylphenyl)ureido)-N-(methylsulfonyl)cyclohexane-1-carboxamide] was less than 10 nM. As for `CC(=O)N1CCC(N(C(=O)Nc2ccc(C)nc2OC(F)F)c2cnccc2C(C)C)CC1` [Example 36, 1-(1-acetylpiperidin-4-yl)-3-(2-(difluoromethoxy)-6-methylpyridin-3-yl)-1-(4-isopropylpyridin-3-yl)urea], where the note is “LPAR1 IC50”, the IC50 lay within 100 to 1000 nM. With `Cc1ccc(NC(=O)N(c2ccccc2C(C)C)[C@H]2CC[C@H](C#N)CC2)c(OC(F)F)n1` [Example 241, 1-((1r,4r)-4-cyanocyclohexyl)-3-(2-(difluoromethoxy)-6-methylpyridin-3-yl)-1-(2-isopropylphenyl)urea], the half-maximal inhibitory concentration (IC50) under setting [1] is 100 to 1000 nM.

In the case of `Cc1ccc(NC(=O)N(CC2CC(CC(=O)O)C2)c2ccccc2C(C)C)c(OC(F)F)n1` (centres unmarked) [Example 224], the IC50 under setting [1] is less than 10 nM. In the case of `COc1ccc(NC(=O)N(c2ccccc2C(C)C)[C@H]2C[C@@](O)(C(F)(F)C(=O)O)C2)c(OC(F)F)n1` [Example 323], the IC50 under setting [1] was less than 10 nM. The same measure, in the same setting: to `COc1ccc(NC(=O)N(c2ccccc2C(C)C)[C@H]2C[C@@H](CC(=O)O)C2)c(OCC(F)F)n1` [Example 332] belongs 10 to 100 nM; to `CC(C)c1ccccc1N(C(=O)Nc1ncc(Cl)cc1OC(F)F)C1CC(CC(=O)O)C1` (centres unmarked) [Example 175, 2-(3-(3-(5-chloro-3-(difluoromethoxy)pyridin-2-yl)-1-(2-isopropylphenyl)ureido)cyclobutyl)acetic acid], less than 10 nM. Regarding `Cc1ccc(NC(=O)N(c2ccccc2C(C)C)[C@H]2C[C@@H](OCc3ccccc3)C2)c(OC(F)F)n1` [Example 24, 1-((1s,3s)-3-(benzyloxy)cyclobutyl)-3-(2-(difluoromethoxy)-6-methylpyridin-3-yl)-1-(2-isopropylphenyl)urea], under setting [1], the IC50 is more than 1000 nM. Take `Cc1ccc(NC(=O)N(c2ccccc2C(C)C)[C@H]2C[C@@H](Cc3nnn[nH]3)C2)c(OC(F)F)n1` [Example 192]: under setting [1], the IC50 lay within 10 to 100 nM. In the case of `Cc1ccc(NC(=O)N(c2ccccc2C(C)C)[C@H]2CC[C@@H](CC(=O)O)CC2)c(OC(F)F)n1` [Example 166, 2-((1s,4s)-4-(3-(2-(difluoromethoxy)-6-methylpyridin-3-yl)-1-(2-isopropylphenyl)ureido)cyclohexyl)acetic acid], the IC50 under setting [1] was in the range of 10 to 100 nM.

As to `Cc1cc(OC(F)F)c(NC(=O)N(c2ccccc2C(C)C)[C@H]2CC[C@H](C(=O)O)CC2)cn1` [Example 157, trans-4-(3-(4-(difluoromethoxy)-6-methylpyridin-3-yl)-1-(2-isopropylphenyl)ureido)cyclohexane-1-carboxylic acid], the concentration for half-maximal inhibition (IC50) under setting [1] lay within 10 to 100 nM. Regarding `COc1ccc(NC(=O)N(c2ccccc2C(C)C)[C@H]2CC[C@H](C(=O)O)CC2)c(OCc2ccccc2)n1` [Example 253, (1r,4r)-4-(3-(2-(benzyloxy)-6-methoxypyridin-3-yl)-1-(2-isopropylphenyl)ureido)cyclohexane-1-carboxylic acid], the IC50 under setting [1] lay in the range of 10 to 100 nM. `Cc1ccc(NC(=O)N(c2ccccc2C(C)C)[C@H]2CC[C@@H](S(C)(=O)=O)CC2)c(OC(F)F)n1` [Example 255, 3-(2-(difluoromethoxy)-6-methylpyridin-3-yl)-1-(2-isopropylphenyl)-1-((1s,4s)-4-(methylsulfonyl)cyclohexyl)urea]: the IC50 under setting [1] lay within 10 to 100 nM. Take `COC(=O)C1CC(N(C(=O)Nc2ncc(Br)cc2OC(F)F)c2ccccc2C(C)C)C1` (centres unmarked) [Example 177]: the IC50 under setting [1] lay in the range of 10 to 100 nM. The same measure, in the same setting: to `COc1ccc(NC(=O)N(c2ccccc2C(C)C)[C@H]2C[C@H](C(=O)O)C2)c(OC(F)F)n1` [Example 151] belongs 10 to 100 nM; to `CC(=O)N1CC2(CC(N(C(=O)Nc3ncc(Br)cc3OC(F)F)c3ccccc3C(C)C)C2)C1` [Example 123, 1-(2-acetyl-2-azaspiro[3.3]heptan-6-yl)-3-(5-bromo-3-(difluoromethoxy)pyridin-2-yl)-1-(2-isopropylphenyl)urea], 100 to 1000 nM; to `Cc1ccc(NC(=O)N(c2ccccc2C(C)C)[C@H]2CC[C@H](C(=O)O)C2)c(OC(F)F)n1` [Example 304], less than 10 nM. On the same count and under the same terms, to `COc1ccc(NC(=O)N(c2ccccc2C(C)C)[C@H]2CC[C@H](C(=O)O)CC2)c(O)n1` [Example 254] belongs more than 1000 nM; to `Cc1ccc(NC(=O)N(c2ccccc2C(C)C)[C@H]2C[C@H](C(N)=O)C2)c(OC(F)F)n1` [Example 186, (1r,3r)-3-(3-(2-(difluoromethoxy)-6-methylpyridin-3-yl)-1-(2-isopropylphenyl)ureido)cyclobutane-1-carboxamide], more than 1000 nM; to `COc1ccc(NC(=O)N(c2ccccc2C(C)C)[C@H]2CC[C@H](C(=O)O)CC2)c(OCC(F)F)n1` [Example 289, (1r,4r)-4-(3-(2-(2,2-difluoroethoxy)-6-methoxypyridin-3-yl)-1-(2-isopropylphenyl)ureido)cyclohexane-1-carboxylic acid], less than 10 nM.

With `CC(=O)N[C@H]1CC[C@@H](N(C(=O)Nc2ccc(C)nc2OC(F)F)c2ccccc2C(C)C)CC1` [Example 266, N-((1s,4s)-4-(3-(2-(difluoromethoxy)-6-methylpyridin-3-yl)-1-(2-isopropylphenyl)ureido)cyclohexyl)acetamide], the 50% inhibitory concentration (IC50) under setting [1] fell in the range of 100 to 1000 nM. In the case of `COc1ccc(NC(=O)N(c2ccccc2C(C)C)C2CC(CC(=O)O)C2)c(OC(F)F)n1` (centres unmarked) [Example 148], under setting [1], the IC50 was less than 10 nM. Same read-out and setting: the value for `CCOC(=O)N1CC(N(C(=O)Nc2ccc(C)nc2OC(F)F)c2ccccc2C(C)C)C1` [Example 78, ethyl 3-(3-(2-(difluoromethoxy)-6-methylpyridin-3-yl)-1-(2-isopropylphenyl)ureido)azetidine-1-carboxylate] was 10 to 100 nM; that for `Cc1ccc(NC(=O)N(c2ccccc2C(C)C)[C@H]2CC[C@@H](C=O)CC2)c(OC(F)F)n1` [Example 244] was more than 1000 nM.

For the compound `Cc1ccc(NC(=O)N(c2ccccc2C(C)C)[C@H]2CC[C@@H](C(F)F)CC2)c(OC(F)F)n1` [Example 245, 3-(2-(difluoromethoxy)-6-methylpyridin-3-yl)-1-((1s,4s)-4-(difluoromethyl)cyclohexyl)-1-(2-isopropylphenyl)urea], the IC50 under setting [1] is more than 1000 nM.

Take `CC(=O)N1CCC(N(C(=O)Nc2ccc(C)cn2)c2ccccc2C(C)C)CC1` [Example 143, 1-(1-acetylpiperidin-4-yl)-1-(2-isopropylphenyl)-3-(5-methylpyridin-2-yl)urea]: the 50% inhibitory concentration (IC50) (LPAR1 IC50) was more than 1000 nM.

As for `COc1ccc(NC(=O)N(c2ccccc2C(C)C)[C@H]2CC[C@](O)(C(F)(F)C(=O)O)CC2)c(OC(F)F)n1` [Example 322, 2-((1s,4s)-4-(3-(2-(difluoromethoxy)-6-methoxypyridin-3-yl)-1-(2-isopropylphenyl)ureido)-1-hydroxycyclohexyl)-2,2-difluoroacetic acid], the half-inhibitory concentration (IC50) under setting [1] is less than 10 nM. Still for that read-out and setting: the value for `COc1ccc(NC(=O)N(c2ccccc2C(C)C)[C@@H]2CCC[C@H](C(=O)O)C2)c(OC(F)F)n1` [Example 286] was 10 to 100 nM. For the compound `COc1ccc(NC(=O)N(c2ccccc2C(C)C)[C@@H]2C[C@H]3C[C@@H]2CN3C(C)=O)c(OC(F)F)n1` [Example 58, 1-((1R,4R,5R)-2-acetyl-2-azabicyclo[2.2.1]heptan-5-yl)-3-(2-(difluoromethoxy)-6-methoxypyridin-3-yl)-1-(2-isopropylphenyl)urea], the half-maximal inhibitory concentration (IC50) (LPAR1 IC50) was more than 1000 nM.

Take `COc1nc(OC(F)F)c(NC(=O)N(c2ccccc2C(C)C)C2CCN(C(C)=O)CC2)cc1F` [Example 225, 1-(1-acetylpiperidin-4-yl)-3-(2-(difluoromethoxy)-5-fluoro-6-methoxypyridin-3-yl)-l-(2-isopropylphenyl)urea]: the IC50 (LPAR1 IC50) is 10 to 100 nM. `Cc1ccc(NC(=O)N(c2ccccc2C(C)C)[C@H]2CC[C@H](S(C)(=O)=O)CC2)c(OC(F)F)n1` [Example 256, 3-(2-(difluoromethoxy)-6-methylpyridin-3-yl)-1-(2-isopropylphenyl)-1-((1r,4r)-4-(methylsulfonyl)cyclohexyl)urea]: the IC50 under setting [1] lay in the range of 100 to 1000 nM. Turning to `CC(=O)N1CCC(N(C(=O)Nc2ccc(C)nc2OC(F)F)c2ccccc2C(C)C)CC1` [Example 66, 1-(1-acetylpiperidin-4-yl)-3-(2-(difluoromethoxy)-6-methylpyridin-3-yl)-1-(2-isopropylphenyl)urea], under “LPAR1 IC50”, the IC50 was less than 10 nM. For the compound `Cc1ccc(NC(=O)N(C[C@H]2CCN2C(=O)OC(C)(C)C)c2ccccc2C(C)C)c(OC(F)F)n1` [Example 11, tert-butyl (R)-2-((3-(2-(difluoromethoxy)-6-methylpyridin-3-yl)-1-(2-isopropylphenyl)ureido)methyl)azetidine-1-carboxylate], the half-maximal inhibitory concentration (IC50) under setting [1] was more than 1000 nM.

In the case of `Cc1ccc(NC(=O)N(c2ccccc2C(C)C)[C@H]2CC[C@@H](CO)CC2)c(OC(F)F)n1` [Example 242], under setting [1], the IC50 fell in the range of 100 to 1000 nM. `COC(=O)[C@H]1C[C@H](N(C(=O)Nc2cc(F)c(F)cc2OC(F)F)c2ccccc2C(C)C)C1` [Example 163, methyl (1r,3r)-3-(3-(2-(difluoromethoxy)-4,5-difluorophenyl)-1-(2-isopropylphenyl)ureido)cyclobutane-1-carboxylate]: the IC50 under setting [1] was more than 1000 nM. Turning to `Cc1ccc(NC(=O)N(C[C@@H]2CCN2C(=O)OC(C)(C)C)c2ccccc2C(C)C)c(OC(F)F)n1` [Example 12, tert-butyl (S)-2-((3-(2-(difluoromethoxy)-6-methylpyridin-3-yl)-1-(2-isopropylphenyl)ureido)methyl)azetidine-1-carboxylate], under setting [1], the IC50 is more than 1000 nM.
